We go through two compounds from patent US7387715B2, “Sample positioning and analysis system” (priority 1997, dated 2008).

Assay [1] in a line: Voltage-clamp current recording of alamethicin pores in a vesicle-derived membrane over a chip aperture. It is filed as biochemical. As to conditions: alamethicin 0.1 μg/mL final concentration in measurement compartment, 85 mM KCl. Here is the method: In these experiments, a membrane is formed over an aperture in 85 mM KCl. Next, alamethicin is added to the measurement compartment, to a final concentration of 0.1 μg/mL.^xvii Finally, a potential is applied, and a plot of current versus time is generated.

Assay [2] has as its system nAChR (nicotinic acetylcholine receptor). Kind of assay: Voltage-clamp current recording of nAChR fused into a membrane on a Si/SiO2 carrier chip. The assay is classed as biochemical. Conditions: carbamylcholine 20 μM final concentration. On the procedure:
In these experiments, a membrane is formed as above. Next, nAChR is introduced into the membrane via Ca^2+-mediated fusion. Specifically, nAChR is purified from an appropriate source, and then reconstituted into small unilamellar vesicles.^xviii Next, these vesicles are added to the measurement compartment, and then fused to the membrane by increasing the Ca^2+ concentration of the sample chamber to greater than about 1 mM. In given cases, the fusion is supported by the subsequent temporary setup of an osmotic gradient.^xix Finally, a potential is applied, and a plot of current versus time is generated. In the absence of agonists, typical receptor opening events are observed (FIG. 15A), whereas, in the presence of agonists, such as carbamylcholine (20 μM final concentration), such receptor opening events are substantially extinguished within a short time (t<100 seconds) (FIG. 15B).

Non-standard residues stand in square brackets, D forms with d. Residues, ends and D or L forms follow the SMILES beside them. Phe(ol) = N[C@H](CO)Cc1ccccc1; Aib = CC(C)(N)C(=O)O Some results are limits rather than exact numbers.

In the case of `CC(=O)NC(C)(C)C(=O)N1CCC[C@H]1C(=O)NC(C)(C)C(=O)N[C@@H](C)C(=O)NC(C)(C)C(=O)N[C@@H](C)C(=O)N[C@@H](CCC(N)=O)C(=O)NC(C)(C)C(=O)N[C@H](C(=O)NC(C)(C)C(=O)NCC(=O)N[C@@H](CC(C)C)C(=O)NC(C)(C)C(=O)N1CCC[C@H]1C(=O)N[C@H](C(=O)NC(C)(C)C(=O)NC(C)(C)C(=O)N[C@@H](CCC(=O)O)C(=O)N[C@@H](CCC(N)=O)C(=O)N[C@H](CO)Cc1ccccc1)C(C)C)C(C)C` [alamethicin] (Ac-[Aib]P[Aib]A[Aib]AQ[Aib]V[Aib]GL[Aib]PV[Aib][Aib]EQ[Phe(ol)]), in assay [1], the “conductivities of the alamethicin pores” value was 600 pS.
With `C[N+](C)(C)CCOC(N)=O.[Cl-]` [carbamylcholine], the “receptor openings after addition of the agonist (desensitization)” value in assay [2] (150 seconds after addition, 400 mM KCl, positive potentials) is reported as “no receptor openings are observed”. The “time within which receptor opening events are substantially extinguished in the presence of agonist” value in assay [2] is less than 100 s.
